{"source": "patent US20260273004A1", "about": "“AGENT AND METHOD FOR MAINTAINING OR IMPROVING CEREBRAL FUNCTION USING CRUDE DRUG” (CEREBRO PHARMA INC., priority 2023, published 2026)", "key": {"[1]": {"test_system": "Tau784 mice", "assay": "Morris water maze test in Tau784 mice", "format": "in vivo, mouse", "conditions": "Tau784 mice aged 8-10 months; orally, one month; mixture of catechin 0.087 μg, chlorogenic acid 0.036 μg, rutin 0.123 μg, or catechin alone 0.087 μg; FIG. 24", "text": "The Tau784 mice are FTD models that express both three-repeat and four-repeat human tau at an adult age (with four-repeat human tau being dominantly expressed) due to the presence of a tau intron mutation (Non-Patent Literature 25: Umeda et al., Am. J. Pathol., (2013), 183[1]:211-25; and Non-Patent Literature 26: Umeda et al., Ann. Clin. Transl. Neurol., (2015), 2[3]:241-55).\nTo investigate the effect of mãmaki leaf hot water extract, the extract powder was suspended in water at concentrations of 3.33, 0.33, and 0.10 mg/mL by sonication. 300 μL of each suspension (containing 1,000, 100, and 30 μg of powder) was orally administered to male and female Tau784 mice five days a week (Monday to Friday) for one month. As a control, the same amount of water was administered to age-matched Tg and non-Tg littermates. For APP23, Huα-Syn (A53T), and C9-500 mice, a 0.33 mg/mL suspension (100 μg of powder/[…]) was orally administered to male and female mice for one month. […]\nThe spatial reference memory of each mouse was evaluated using the Morris water maze test (Non-Patent Literature 34: Kelley Bromley-Brits et al., J. Vis. Exp., (2011), 53e2920). […] Each mouse was placed in the pool and allowed to swim for 60 seconds, and the time taken to reach the platform was measured (referred to as escape latency). […]"}, "[2]": {"test_system": "mouse models of AD and PD", "conditions": "oral administration, Non-Patent Literature 18, 19; cited from earlier work"}, "[3]": {"test_system": "BDNF and nerve growth factor (NGF)", "conditions": "oral administration; rat model of cerebral ischemia/reperfusion; Non-Patent Literature 20; cited from earlier work"}}, "data": [{"molecule": "catechin", "values": [{"measurement": "memory (Morris water maze test)", "setting": "[1]", "value": "showed a weaker effect than the polyphenol mixture"}]}, {"molecule": "O=C(/C=C/c1ccc(O)c(O)c1)O[C@@H]1C[C@](O)(C(=O)O)C[C@@H](O)[C@H]1O", "note": "[Chlorogenic acid, 5-O-caffeoylquinic acid]", "values": [{"measurement": "memory and motor function", "setting": "[2]", "value": "improves their memory and motor function"}, {"measurement": "expression of BDNF and nerve growth factor (NGF)", "setting": "[3]", "value": "promote the expression of BDNF and nerve growth factor (NGF)"}]}]}
